Data reported in US11191811B2, “Osteocalcin as a treatment for frailty associated with aging” (THE TRUSTEES OF COLUMBIA UNIVERSITY IN THE CITY OF NEW YORK, priority 2014, dated 2021).
Read-outs that look alike come from different tables or passages of the source.

Legend:
gamma-carboxylase = target: T1, gamma-carboxylase (Homo sapiens, UniProt P38435); conditions: thiol-specific inhibitors; cited from earlier work
T1 sequence (P38435 1-758): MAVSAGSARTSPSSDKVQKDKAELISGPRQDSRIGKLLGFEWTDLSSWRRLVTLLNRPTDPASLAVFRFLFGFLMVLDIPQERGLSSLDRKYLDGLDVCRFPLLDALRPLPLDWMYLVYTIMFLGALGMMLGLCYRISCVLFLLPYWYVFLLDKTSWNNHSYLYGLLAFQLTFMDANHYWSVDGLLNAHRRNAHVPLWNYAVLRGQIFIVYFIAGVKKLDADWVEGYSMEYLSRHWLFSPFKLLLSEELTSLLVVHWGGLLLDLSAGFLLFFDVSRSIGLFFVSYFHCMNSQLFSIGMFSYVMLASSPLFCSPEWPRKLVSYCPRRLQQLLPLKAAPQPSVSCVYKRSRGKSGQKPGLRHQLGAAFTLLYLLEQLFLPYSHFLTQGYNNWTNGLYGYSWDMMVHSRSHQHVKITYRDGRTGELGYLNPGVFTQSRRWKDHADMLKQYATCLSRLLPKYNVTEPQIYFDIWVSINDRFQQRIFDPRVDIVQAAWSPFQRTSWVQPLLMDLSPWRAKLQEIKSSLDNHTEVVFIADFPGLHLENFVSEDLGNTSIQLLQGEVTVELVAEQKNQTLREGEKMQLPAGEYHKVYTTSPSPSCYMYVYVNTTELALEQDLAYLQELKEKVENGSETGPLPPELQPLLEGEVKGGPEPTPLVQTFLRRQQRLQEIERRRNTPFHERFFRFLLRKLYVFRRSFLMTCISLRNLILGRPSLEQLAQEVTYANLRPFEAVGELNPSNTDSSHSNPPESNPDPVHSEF

osteoblasts = test: Gene expression in osteoblasts treated with IL-6; format: cell-based
Source text: It was observed that treating osteoblasts with IL-6 decreased expression of Osteocalcin, thereby explaining why the circulating levels of total (carboxylated and uncarboxylated forms) osteocalcin are […] in Il6−/− mice. More importantly, IL-6 increased the expression in osteoblasts of Rankl, a cytokine that favors osteoclast differentiation and decreased the expression of Osteoprotegerin (Opg), a decoy receptor for Rankl and an inhibitor of bone resorption (Karsenty and Wagner, 2002, Developmental Cell 2:389-406; Palmqvist et al., 2002, J. Immunol. 169:3353-3362). This observation is consistent with the fact that the circulating levels of the undercarboxylated and active form of osteocalcin are decreased in Il6−/− mice (FIG. 29E). The regulation of Il-6 expression by osteocalcin signaling in myofibers and of bone resorption by IL-6 also explains why circulating levels of CTX, a biomarker of bone resorption, were low after exercise in Il6−/− and Gprc6aMck−/− mice (FIG. 29G-H). These experiments reveal the existence of a feed-forward regulation between osteocalcin production in bone and IL-6 synthesis in muscle that is necessary for the increase in muscle function during exercise. This regulatory loop should synergize with the ability of IL-6 to favor liver gluconeogenesis and lipolysis, since these two other functions of IL-6 increase the pool of nutrients made available for myofibers during exercise.
Serum osteocalcin, PINP, CTX, and insulin levels were measured using ELISA assays. Blood glucose level was measured using an Accu-Check glucometer. Urine 3-MHT was measured as previously described (Aranibar et al., 2011, Anal. Biochem. 410:84-91). Determination of cAMP accumulation was performed using a commercial kit (R&D). For gene expression, 1 μg of total RNA was reverse transcribed into cDNA. qPCR analyses were performed using a SYBER green master mix (Applied Biosciences) and a CFX-Connect real time PCR (Bio-Rad). Relative expression levels of each gene were normalized to that of Hprt or Gapdh. For in situ hybridization, muscle was frozen in liquid N2-cooled methylbutane. Samples were sectioned at 10 μm using a cryostat. In situ hybridization was performed with a DIG-labeled riboprobe as previously described (Oury et al., 2011, Cell 144:796-809).

| Compound | gamma-carboxylase enzyme activity (gamma-carboxylase) | expression of Osteocalcin in osteoblasts (osteoblasts) | expression of Osteoprotegerin (Opg) in osteoblasts (osteoblasts) | expression of Rankl in osteoblasts (osteoblasts) | expression of Osteocalcin in osteoblasts (osteoblasts; listed as interleukin-6) | expression of Rankl in osteoblasts (osteoblasts; listed as interleukin-6) |
| --- | --- | --- | --- | --- | --- | --- |
| CCN1C(=O)C=CC1=O [N-ethylmaleimide] | inhibited | – | – | – | – | – |
| O=C([O-])c1cc[c]([Hg][OH])cc1 [pHMB, p-hydroxymurcuribenzoate] | inhibited | – | – | – | – | – |
| IL-6: interleukin-6 (IL-6), a myokine whose circulating levels raise during exercise | – | decreased | decreased | increased | inhibits | stimulating |
